Results as given in patent US10766869B2, “Triazoles for the treatment of demyelinating dieases” (Vertex Pharmaceuticals Incorporated, priority 2015, dated 2020).

System: primary rat mixed cortical cells
Experiment: In vitro myelination assay (MBP positive myelin strands, fold myelin pixels above background)
Assay type: cell-based
Conditions: Rattus norvegicus, read-out: Fold myelin pixels above background relative to baseline of no added compound; for fold induction at 1 µM: 1.0 μM compound; for fold induction at 10 µM: 10.0 μM compound
Procedure, shortened: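 P1 rat cortical cells (neurons, OPCs, oligodendrocytes, astrocytes, microglia) were cultured 14 days at 37 °C with compound, with half-medium changes containing 1× compound on days 6 and 10. Fixed cells were immunostained for MBP and imaged at 10×. Total MBP myelin pixels per well were expressed as fold above no-compound baseline at 1.0 μM and 10.0 μM.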

SMILES	fold induction at 1 µM	fold induction at 10 µM
[2H]C1([2H])N(c2cc(C)cc(Nc3ncn(-c4cc(F)cc(F)c4)n3)c2)C([2H])([2H])C([2H])([2H])N(C2CCOC2)C1([2H])[2H] (stereo not shown) [Compound 1042, 1-(3,5-difluorophenyl)-N-[3-methyl-5-(2,2,3,3,5,5,6,6-octadeuterio-4-tetrahydrofuran-3-yl-piperazin-1-yl)phenyl]-1,2,4-triazol-3-amine]	10 to 100	≤ 1
Cc1cc(Nc2ncn(-c3cc(F)cc(F)c3)n2)c(F)c(N2CCN(CCO)CC2)c1 [Compound 1043, 2-[4-[3-[[1-(3,5-difluorophenyl)-1,2,4-triazol-3-yl]amino]-2-fluoro-5-methyl-phenyl]piperazin-1-yl]ethanol]	10 to 100	≤ 1
[2H]C1([2H])N(C(C)=O)C([2H])([2H])C([2H])([2H])N(c2cc(C)cc(Nc3ncn(-c4cc(F)cc(F)c4)n3)c2)C1([2H])[2H] [Compound 1044, 1-[2,2,3,3,5,5,6,6-octadeuterio-4-[3-[[1-(3,5-difluorophenyl)-1,2,4-triazol-3-yl]amino]-5-methyl-phenyl]piperazin-1-yl]ethanone]	1 to 10	1 to 10
Cc1cc(Nc2ncn(-c3cc(F)cc(F)c3)n2)cc(NC2CCN(CC3CCOC3)CC2)c1 (stereo not shown) [Compound 1045, N3-[1-(3,5-difluorophenyl)-1,2,4-triazol-3-yl]-5-methyl-N1-[1-(tetrahydrofuran-3-ylmethyl)-4-piperidyl]benzene-1,3-diamine]	1 to 10	≤ 1
Cc1cc(NCC2CCN(C3CCOCC3)CC2)cc(Nc2ncn(-c3cc(F)cc(F)c3)n2)c1 [Compound 1046, N1-[1-(3,5-difluorophenyl)-1,2,4-triazol-3-yl]-5-methyl-N3-[(1-tetrahydropyran-4-yl-4-piperidyl)methyl]benzene-1,3-diamine]	1 to 10	≤ 1
Cc1cc(Nc2ncn(-c3cc(F)cc(F)c3)n2)cc(N2CCN(CC3CCCN(C)C3)CC2)c1 (stereo not shown) [Compound 1047, 1-(3,5-difluorophenyl)-N-[3-methyl-5-[4-[(1-methyl-3-piperidyl)methyl]piperazin-1-yl]phenyl]-1,2,4-triazol-3-amine]	1 to 10	≤ 1
Cc1cc(Nc2ncn(-c3cc(F)cc(F)c3)n2)cc(NC2CCOC3(CCOC3)C2)c1 (stereo not shown) [Compound 1048, N3-[1-(3,5-difluorophenyl)-1,2,4-triazol-3-yl]-N1-(2,6-dioxaspiro[4.5]decan-9-yl)-5-methyl-benzene-1,3-diamine]	10 to 100	≤ 1
Cc1cc(Nc2ncn(-c3ccccc3)n2)cc(Nc2ncc(C)o2)c1 [Compound 1049, 5-methyl-N1-(5-methyloxazol-2-yl)-N3-(1-phenyl-1,2,4-triazol-3-yl)benzene-1,3-diamine]	1 to 10	10 to 100
COCCN1CCCC(Nc2cc(C)cc(Nc3ncn(-c4cc(F)cc(F)c4)n3)c2)C1 (stereo not shown) [Compound 1050, N3-[1-(3,5-difluorophenyl)-1,2,4-triazol-3-yl]-N1-[1-(2-methoxyethyl)-3-piperidyl]-5-methyl-benzene-1,3-diamine]	10 to 100	≤ 1
Cc1cc(Nc2ncn(-c3cc(F)cc(F)c3)n2)cc(N2CCCC2CS(C)(=O)=O)c1 (stereo not shown) [Compound 1051, 1-(3,5-difluorophenyl)-N-[3-methyl-5-[2-(methylsulfonylmethyl)pyrrolidin-1-yl]phenyl]-1,2,4-triazol-3-amine]	10 to 100	1 to 10
Cc1cc(Nc2ncn(-c3cc(F)cc(F)c3)n2)cc(N2CCC(N3CCCC(O)C3)CC2)c1 (stereo not shown) [Compound 1054, 1-[1-[3-[[1-(3,5-difluorophenyl)-1,2,4-triazol-3-yl]amino]-5-methyl-phenyl]-4-piperidyl]piperidin-3-ol]	≤ 1	≤ 1
CCC1CN(c2cc(C)cc(Nc3ncn(-c4cc(F)cc(F)c4)n3)c2)CCN1CC(C)O (stereo not shown) [Compound 1056, 1-[4-[3-[[1-(3,5-difluorophenyl)-1,2,4-triazol-3-yl]amino]-5-methyl-phenyl]-2-ethyl-piperazin-1-yl]propan-2-ol]	1 to 10	≤ 1
Cc1cc(Nc2ncn(-c3cc(F)cc(F)c3)n2)cc(N2CCC3OCC3C2)c1 (stereo not shown) [Compound 1057, 1-(3,5-difluorophenyl)-N-[3-methyl-5-(8-oxa-4-azabicyclo[4.2.0]octan-4-yl)phenyl]-1,2,4-triazol-3-amine]	1 to 10	≤ 1
Cc1cc(NC(=O)C2CC2)cc(Nc2ncn(-c3ccccc3)n2)c1 [Compound 1058, N-[3-methyl-5-[(1-phenyl-1,2,4-triazol-3-yl)amino]phenyl]cyclopropanecarboxamide]	10 to 100	10 to 100
Cc1cc(Nc2ncn(-c3cc(F)cc(F)c3)n2)cc(NC(C)C2CC2)c1 (stereo not shown) [Compound 1059, N1-(1-cyclopropylethyl)-N3-[1-(3,5-difluorophenyl)-1,2,4-triazol-3-yl]-5-methyl-benzene-1,3-diamine]	10 to 100	≤ 1
Cc1cc(Nc2ncn(-c3cc(F)cc(F)c3)n2)cc(N2CCC(N3CCCC3)C2)c1 (stereo not shown) [Compound 1060, 1-(3,5-difluorophenyl)-N-[3-methyl-5-(3-pyrrolidin-1-ylpyrrolidin-1-yl)phenyl]-1,2,4-triazol-3-amine]	1 to 10	≤ 1
Cc1cc(NCC2COCCN2C)cc(Nc2ncn(-c3cc(F)cc(F)c3)n2)c1 (stereo not shown) [Compound 1062, N1-[1-(3,5-difluorophenyl)-1,2,4-triazol-3-yl]-5-methyl-N3-[(4-methylmorpholin-3-yl)methyl]benzene-1,3-diamine]	10 to 100	≤ 1
CCOCCN1CCN(c2cc(C)cc(Nc3ncn(-c4cc(F)cc(F)c4)n3)c2)CC1C (stereo not shown) [Compound 1063, 1-(3,5-difluorophenyl)-N-[3-[4-(2-ethoxyethyl)-3-methyl-piperazin-1-yl]-5-methyl-phenyl]-1,2,4-triazol-3-amine]	10 to 100	≤ 1
Cc1cc(Nc2ncn(-c3cc(F)cc(F)c3)n2)cc(NC2CCN(C3CCOC3)CC2)c1 (stereo not shown) [Compound 1064, N3-[1-(3,5-difluorophenyl)-1,2,4-triazol-3-yl]-5-methyl-N1-(1-tetrahydrofuran-3-yl-4-piperidyl)benzene-1,3-diamine]	10 to 100	≤ 1
COC1CCCC1Nc1cc(C)cc(Nc2ncn(-c3cc(F)cc(F)c3)n2)c1 (stereo not shown) [Compound 1065, N3-[1-(3,5-difluorophenyl)-1,2,4-triazol-3-yl]-N1-(2-methoxycyclopentyl)-5-methyl-benzene-1,3-diamine]	10 to 100	1 to 10
[2H]C1([2H])OC([2H])([2H])C([2H])([2H])N(c2cc(C)cc(Nc3ncn(-c4ccc(F)c(F)c4)n3)c2)C1([2H])[2H] [Compound 1066, 1-(3,4-difluorophenyl)-N-[3-methyl-5-(2,2,3,3,5,5,6,6-octadeuteriomorpholin-4-yl)phenyl]-1,2,4-triazol-3-amine]	10 to 100	≤ 1
COCCN1CCN(c2cc(C)cc(Nc3ncn(-c4cc(F)cc(F)c4)n3)c2)CC1=O [Compound 1067, 4-[3-[[1-(3,5-difluorophenyl)-1,2,4-triazol-3-yl]amino]-5-methyl-phenyl]-1-(2-methoxyethyl)piperazin-2-one]	1 to 10	≤ 1
COC1CCN(C2CCN(c3cc(C)cc(Nc4ncn(-c5cc(F)cc(F)c5)n4)c3)CC2)CC1 [Compound 1068, 1-(3,5-difluorophenyl)-N-[3-[4-(4-methoxy-1-piperidyl)-1-piperidyl]-5-methyl-phenyl]-1,2,4-triazol-3-amine]	10 to 100	10 to 100
Cc1cc(Nc2ncn(-c3cc(F)cc(F)c3)n2)nc(OCC2COC2)c1 [Compound 1069, N-[1-(3,5-difluorophenyl)-1,2,4-triazol-3-yl]-4-methyl-6-(oxetan-3-ylmethoxy)pyridin-2-amine]	1 to 10	1 to 10
Cc1cc(Nc2ncn(-c3cc(F)cc(F)c3)n2)cc(NC2CCN(C3CCC3)CC2)c1 [Compound 1070, N1-(1-cyclobutyl-4-piperidyl)-N3-[1-(3,5-difluorophenyl)-1,2,4-triazol-3-yl]-5-methyl-benzene-1,3-diamine]	10 to 100	≤ 1
Cc1cc(Nc2ncn(-c3cccc(F)c3)n2)cc(N2CC3(C2)CN(C(C)C)C3)c1 [Compound 1071, 1-(3-fluorophenyl)-N-[3-(2-isopropyl-2,6-diazaspiro[3.3]heptan-6-yl)-5-methyl-phenyl]-1,2,4-triazol-3-amine]	10 to 100	≤ 1
Cc1cc(Nc2ncn(-c3cc(F)cc(F)c3)n2)c(F)c(N2CC3(C2)CN(C(C)C)C3)c1 [Compound 1072, 1-(3,5-difluorophenyl)-N-[2-fluoro-3-(2-isopropyl-2,6-diazaspiro[3.3]heptan-6-yl)-5-methyl-phenyl]-1,2,4-triazol-3-amine]	1 to 10	≤ 1
Cc1cc(Nc2ncn(-c3cc(F)cc(F)c3)n2)cc(N2CCOC(CO)C2)c1 (stereo not shown) [Compound 1073, [4-[3-[[1-(3,5-difluorophenyl)-1,2,4-triazol-3-yl]amino]-5-methyl-phenyl]morpholin-2-yl]methanol]	10 to 100	≤ 1
Cc1cc(Nc2ncn(-c3cc(F)cc(F)c3)n2)cc(N2CCC(OCCN3CCCC3)CC2)c1 [Compound 1074, 1-(3,5-difluorophenyl)-N-[3-methyl-5-[4-(2-pyrrolidin-1-ylethoxy)-1-piperidyl]phenyl]-1,2,4-triazol-3-amine]	1 to 10	≤ 1
